The source of these data is US8058295B2, “Cystic fibrosis transmembrane conductance regulator protein inhibitors and uses thereof” (The Regents of the University of California, priority 2002, dated 2011).

This test concerns STa toxin-induced fluid secretion. Also on record: species or system rats. To be noted: rat, in vivo.

The structures appear in SMILES notation.

Consider `O=C(O)c1ccc(/C=C2\SC(=S)N(c3cccc(C(F)(F)F)c3)C2=O)cc1` [CFTRinh-172, 3-[(3-trifluoromethyl)phenyl]-5-[(4-carboxyphenyl)methylene]-2-thioxo-4-thiazolidinone], for which the “inhibition of intestinal fluid secretion” value is roughly 75%.
